From patent EP4696688A1, “BENZO-FUSED RING COMPOUND INHIBITOR, AND PREPARATION METHOD THEREFOR AND USE THEREOF” (Shanghai Hansoh Biomedical Co., Ltd., priority 2023, dated 2024)

Legend:
human CYP11B1 = target: T1, human CYP11B1 (Homo sapiens, UniProt P15538); assay: G-402 cell enzyme experiment, CYP11B1 (cortisol product, HTRF), selectivity versus CYP11B2; assay type: cell-based; conditions: human selective factor: ratio of CYP11B1 EC50 to CYP11B2 EC50; G-402 cells
T1 construct: The main elements of an expression plasmid include ORF of human CYP11B1 or human CYP11B2; expressed in transfected cells
T1 sequence (P15538 25-503): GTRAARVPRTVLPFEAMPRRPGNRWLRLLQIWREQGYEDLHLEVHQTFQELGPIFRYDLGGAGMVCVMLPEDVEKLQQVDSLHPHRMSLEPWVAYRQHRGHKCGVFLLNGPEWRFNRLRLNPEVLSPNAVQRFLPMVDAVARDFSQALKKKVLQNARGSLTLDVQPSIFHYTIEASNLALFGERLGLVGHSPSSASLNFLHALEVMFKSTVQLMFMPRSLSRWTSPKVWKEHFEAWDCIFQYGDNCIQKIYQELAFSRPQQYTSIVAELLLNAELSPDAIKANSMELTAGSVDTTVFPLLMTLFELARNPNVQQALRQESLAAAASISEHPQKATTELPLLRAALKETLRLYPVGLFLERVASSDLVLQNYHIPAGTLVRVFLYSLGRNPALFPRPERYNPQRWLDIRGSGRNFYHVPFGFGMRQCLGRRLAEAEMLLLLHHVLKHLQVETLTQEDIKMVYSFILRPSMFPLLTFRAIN

human CYP11B2 = target: T2, human CYP11B2 (Homo sapiens, UniProt P19099); assay: G-402 cell enzyme experiment, CYP11B2 (aldosterone product, HTRF); assay type: cell-based; conditions: G-402 cells stably expressing human CYP11B2, 1 µM 11-deoxycorticosterone, 16 h
T2 construct: The main elements of an expression plasmid include ORF of human CYP11B1 or human CYP11B2; expressed in transfected cells
T2 sequence (P19099 25-503): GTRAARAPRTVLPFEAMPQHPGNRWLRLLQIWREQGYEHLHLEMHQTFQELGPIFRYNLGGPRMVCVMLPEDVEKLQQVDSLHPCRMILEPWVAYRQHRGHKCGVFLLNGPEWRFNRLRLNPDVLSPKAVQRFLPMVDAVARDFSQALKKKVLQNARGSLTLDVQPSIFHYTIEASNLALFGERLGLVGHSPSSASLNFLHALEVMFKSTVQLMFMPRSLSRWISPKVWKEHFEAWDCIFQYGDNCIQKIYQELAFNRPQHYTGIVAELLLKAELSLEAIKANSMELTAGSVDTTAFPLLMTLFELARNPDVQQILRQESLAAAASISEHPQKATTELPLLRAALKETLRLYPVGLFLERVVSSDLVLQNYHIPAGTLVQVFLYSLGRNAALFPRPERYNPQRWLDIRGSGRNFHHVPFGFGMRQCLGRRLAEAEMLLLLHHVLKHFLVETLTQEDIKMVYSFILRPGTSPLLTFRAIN
Outline: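 Stably transfected G-402 cells in DMEM/F12 with 2.5% charcoal-treated FBS, incubated 16 h with 1 µM 11-deoxycorticosterone (CYP11B2, aldosterone product) or 1 µM 11-deoxycortisol (CYP11B1, cortisol product). Supernatant product measured by HTRF; EC50 from 4-parameter MMF sigmoidal fit, minimum defined by empty-plasmid cells.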

[1] = Pharmacokinetic determination in rats; assay type: in vivo; conditions: rat, male SD rats, plasma, oral administration (PO) 5 mg/kg
Method: SD rats were used as test animals to study the pharmacokinetic behavior of the compounds of the present invention in rats (plasma) after oral administration.
3 SD rats per group, male.
Formulation of drug for oral administration: 0.5% CMC-Na (1% Tween 80)
5 g of sodium carboxymethyl cellulose (CMC-Na, viscosity: 800-1200 Cps) was weighed and dissolved in 1000 mL of purified water, and 10 g of Tween 80 was added. These materials were uniformly mixed to form a clear solution.
The example compounds were weighed and dissolved in the solution and the mixture was shaken well and ultrasonicated for 15 min to obtain a colorless clear solution with a concentration of 0.5 mg/mL. Formulation of drug for intravenous administration: 5% DMSO + 10% Solutol HS15 + 85% PBS
After overnight fasting, 3 male SD rats per group were administered orally (PO) at a dose of 5 mg/kg with an administration volume of 10 mL/kg. […]
0.2 mL of blood was collected from the jugular vein of the experimental animals before administration and at 0.25 h, 0.5 h, 1.0 h, 2.0 h, 4.0 h, 6.0 h, 8.0 h, and 24.0 h after administration and placed in an EDTA-2K test tube, and the test tube was centrifuged at 8000 rpm for 6 min at 4°C to separate the plasma, which was stored at -80°C; and the animals were fed 4 h after administration.
3 Experimental results: The final determination results were obtained by using LCMS/MS method.

hsF (human CYP11B1): 1292x
EC50 (human CYP11B2): 26 nM
AUC(0-inf) [1]: 24700 ng·h/mL
AUC(0-t) [1]: 24700 ng·h/mL
Cmax [1]: 2700 ng/mL
Tmax [1]: 4 h
half-life [1]: 1.8 h
MRT inf ([1]; read-out: MRT0-∞): 5.6 h
SMILES: Cn1cc(C(=O)N2CCC3(CC2)CN(c2cncc(-c4ccc5c(c4)sc(=O)n5C)c2)C3)cn1 [Example 103, 3-methyl-6-(5-(7-(1-methyl-1H-pyrazole-4-carbonyl)-2,7-diazaspiro[3.5]nonan-2-yl)pyridin-3-yl)benzo[d]thiazol-2(3H)-one]
